According to PMC6017957, “Synthesis, Anti-Proliferative Activity Evaluation and 3D-QSAR Study of Naphthoquinone Derivatives as Potential Anti-Colorectal Cancer Agents” (Molecules : A Journal of Synthetic Chemistry and Natural …, 2018):
Where two headings read alike, the source gives them in different places.

What was measured:
[1] = test system: HT-29 colorectal cancer cells; assay: MTT anti-proliferative assay against HT-29 cells; format: cell-based, human; settings: for Selectivity Index: SI = IC50Fibroblast/IC50HT-29cells; for Cytotoxic activity category against HT-29: classified by HT-29 IC50
Procedure: (§1) The toxicity of the thirty-six compounds was determined in vitro by means of the MTT assay. Doxorubicin, a drug widely used to treat different types of cancer, was employed as a positive control, whereas the solvent (DMSO) was used as negative control.
(§2) Test compounds were dissolved in DMSO to obtain stock solutions that were maintained as small aliquots at −20 °C. At time of drug addition, an aliquot was thawed and diluted to obtain the desired final maximum test concentration of 100 μM, with complete medium. The final percentage of DMSO in the wells was less than 1% (v/v). […] Anti-Proliferative Assay
(§3) Doxorubicin, a drug widely used to treat different types of cancer, was used as a positive control. After 48 h, the medium was removed and cells were incubated with MTT solution (0.25 mg/mL). Four hours later, the medium was carefully aspired and formazan crystals were dissolved in DMSO (100 μL). The OD550 was measured using a plate reader (Multiskan Go, Thermo Scientific, Waltham, MA, USA). […] The selectivity index (SI), was calculated as a ratio of IC50Fibroblast/IC50HT-29cells.
(§4) The results are expressed as the mean of triplicate measurements in at least two independent experiments.

[2] = test system: fibroblasts PCS-201-012; assay: MTT cytotoxicity assay against normal dermal fibroblasts; format: cell-based; settings: Fibroblast, value with 95% confidence interval, read-out: PCS-201-012 IC50 μM (95% CI)
Procedure: as §1, §2, §3, §4

[3] = Homo sapiens, HT-29, 48 h, MTT, 48 h, 0–100 µM, value with 95% confidence interval, read-out: HT-29 IC50 μM (95% CI)
[4] = Homo sapiens, HT-29, −logIC50 against HT-29, CoMFA training and test sets, read-out: pIC50 Experimental (converted)

Row | Structure (SMILES) | IC50 [1, 3] [µM] | IC50 [2] [µM] | IC50 [1, 4] [µM] | IC50 ([1]; MTT, 48 h, 0–100 µM, value with 95% confidence interval, read-out: HT-29 IC50 μM (95% CI)) [µM] | Selectivity Index [1] | Cytotoxic activity category against HT-29 [1] | IC50 ([1]; Homo sapiens, HT-29, MTT, 48 h, 0–100 µM, value with 95% confidence interval, read-out: HT-29 IC50 μM (95% CI)) [µM] | IC50 ([1]; Homo sapiens, −logIC50 against HT-29, CoMFA training and test sets, read-out: pIC50 Experimental (converted)) [µM]
1 | C/C=C/C1=C(O)C(=O)c2ccccc2C1=O [Compound 4a, 2-Hydroxy-3-[(1E)-prop-1-en-1-yl]naphthalene-1,4-dione] | > 100 |  |  |  |  |  |  | 
2 | CC1=C(N)C(=O)c2ccccc2C1=O [Compound 3a, 2-Amino-3-methylnaphthalene-1,4-dione] | > 100 |  |  |  |  |  |  | 
3 | CCCCc1cc2c(o1)C(=O)c1ccccc1C2=O [Compound 4f, 2-Butylnaphtho[2,3-b]furan-4,9-dione] | 23.7 to 88.1 | 10 | 21.7 | 21.7 | 0.46 |  |  | 
4 | O=C1C(=O)c2ccccc2C2=C1CC(c1ccccc1)O2 (stereo not drawn) [Compound 4r, 2-Phenyl-2,3-dihydronaphtho[1,2-b]furan-4,5-dione] | 14.8 | 8.2 |  |  | 0.56 |  |  | 
5 | COC(=O)c1nc2c(s1)C(=O)c1ccccc1C2=O [Compound 5c, Methyl 4,9-Dioxo-4,9-dihydronaphtho[2,3-d][1,3]thiazole-2-carboxylate] | 13.9 | 7.26 | 13.9 |  | 0.52 |  |  | 
6 | O=C1C2=C(OC(c3ccccc3)C2)C(=O)c2ccccc21 (stereo not drawn) [Compound 4q, 2-Phenyl-2,3-dihydronaphtho[2,3-b]furan-4,9-dione] | 30.2 | 9.16 |  |  | 0.30 |  |  | 
7 | CCN(CC)C(=O)c1cc2c(s1)C(=O)c1c(Cl)cccc1C2=O [Compound 8, 8-chloro-N,N-diethyl-4,9-dioxo-4,9-dihydronaphtho[2,3-b]thiophene-2-carboxamide] | 6.89 | 2.56 | 6.89 |  | 0.37 |  |  | 
8 | O=C(c1cccs1)c1cc2c(s1)C(=O)c1c(O)cccc1C2=O [Compound 7, 8-hydroxy-2-(thiophen-2-ylcarbonyl)naphtho[2,3-b]thiophene-4,9-dione] | 1.73 | 4.56 | 1.73 |  |  |  |  | 
9 | CCN(CC)C(=O)c1cc2c(o1)C(=O)c1ccccc1C2=O [Compound 6, N,N-diethyl-4,9-dioxo-4,9-dihydronaphtho[2,3-b]furan-2-carboxamide] | 2.67 | 1.49 | 2.67 |  | 0.56 | highly active |  | 
10 | CC12OC1C(=O)c1ccccc1C2=O (stereo not drawn) [Compound 3b, 1a-Methyl-1a,7a-dihydronaphtho[2,3-b]oxirene-2,7-dione] | 57.3 |  |  |  |  |  |  | 
11 | NC1=CC(=O)c2ccccc2C1=O [Compound 2, 2-Aminonaphthalene-1,4-dione] |  | 7.34 |  |  | 0.30 |  | 24.6 | 24.6
12 | CCc1cc2c(o1)C(=O)c1ccccc1C2=O [Compound 4e, 2-Ethylnaphtho[2,3-b]furan-4,9-dione] | 24.9 | 20.1 | 24.9 |  | 0.80 |  |  | 
13 | CC(=O)c1cc2c(o1)C(=O)c1ccccc1C2=O [Compound 4m, 2-Acetylnaphtho[2,3-b]furan-4,9-dione] | 4.61 | 3.5 |  |  | 0.76 | highly active |  | 
14 | Cc1cc2c(o1)C(=O)c1ccccc1C2=O [Compound 4d, 2-Methylnaphtho[2,3-b]furan-4,9-dione] | 17.6 | 18.5 | 17.6 |  | 1.05 | highly active |  | 
15 | CCc1noc(-c2cc3c(s2)C(=O)c2ccccc2C3=O)n1 [Compound 9, 2-(3-ethyl-1,2,4-oxadiazol-5-yl)naphtho[2,3-b]thiophene-4,9-dione] | 3.07 | 1.03 | 3.07 |  | 0.34 |  |  | 
16 | O=C1c2ccccc2C(=O)C2OC12 (stereo not drawn) [Compound 1a, 1a,7a-Dihydronaphtho[2,3-b]oxirene-2,7-dione] | 10.8 |  | 10.8 |  |  |  |  | 
17 | COc1cccc2c1C(=O)c1c(O)c3c(c(O)c1C2=O)C[C@@](O)(C(=O)CO)C[C@@H]3O[C@H]1C[C@H](N)[C@H](O)[C@H](C)O1 [Doxorubicin, reference compound] | 1.07 |  |  |  |  |  |  | 
